Entries after “also recorded” stand apart in the source; their conditions may differ.
Tests used:
Aco2 = assay: Quantitative PCR of Aco2 mRNA in rat prefrontal cortex and hippocampus after Li or VPA; type: in vivo; details: normalized to Gapdh; for Aco2 gene expression: relative to control, mean ± SD
Experimental: (§1) Real-time quantitative RT-PCR analysis was conducted using an ABI7900HT Fast Real-Time PCR System (Applied Biosystems, Foster City, Calif.) in both human and rat samples. TaqMan probes and primers for the seven genes (ACO1, ACO2, IDH1, IDH2, IDH3A, IDH3B, IDH3G) and GAPDH (an internal control) (Table 11) were TAQMAN® Gene Expression Assays products (Applied Biosystems).
(§2) The CSF concentrations of 116 major metabolites from several pathways were measured. […] Male Sprague-Dawley rats (Japan SLC Inc., Shizuoka, Japan) aged 6 weeks old were used in this study. All rats were housed in groups of three per cage in a room maintained at 23° C.±2° C. and 60±10% humidity with a 12/12 hour light/dark cycle (lights on at 7:00 a.m.). The rats were given free access to food and water. Animal care and use were conducted in accordance with the Institutional Guidelines for Animal Care and Use of Otsuka Pharmaceutical Co., Ltd. (Tokushima, Japan). […] The drinking water was replaced twice a week. […] All animals were decapitated on day 30 after CSF sampling, and brain regions (prefrontal cortex, and hippocampus) were dissected rapidly on ice. Metabolomic analyses of rat CSF samples were performed as described herein.
(§3) Prefrontal cortex, and hippocampus were dissected rapidly on ice and stored in RNA later (Applied Biosystems) at 4° C. until used for RNA isolation, cDNA synthesis and polymerase chain reaction (PCR) amplification. The total RNA was extracted using the RNeasy Lipid Tissue Mini Kit (QIAGEN) following the instructions of manufacturer. RNA yield and integrity was assessed using Nanodrop (NanoDrop Technologies). Reverse transcription of total RNA was done using the […] VILO cDNA Synthesis Kit (Invitrogen). In the quantitative PCR, the cDNA was amplified using commercial TaqMan assays (Applied Biosystems) for rat Idh3A (Rn00586270_m1), Idh3B (Rn00504589_g1), Aco1 (Rn00569045_m1), Aco2 (Rn00577876_m1) and Gapdh (Rn01775763_g1) with an ABI 7500 Fast Real-Time PCR system (Applied Biosystems). (Table 17) Reactions were performed in triplicates. All reactions were normalized to Gapdh and presented as relative expression changes compared to control.

Idh3a = assay: Quantitative PCR of Idh3a mRNA in rat prefrontal cortex and hippocampus after Li or VPA; type: in vivo; details: normalized to Gapdh
Experimental: as §1, §2, §3

serum samples from rats = assay: Metabolomics of serum samples from rats chronically treated with Li or VPA; type: in vivo, rat; details: chronic (4-weeks) treatment
Experimental: Data from human samples are presented as mean±standard deviation (SD). Statistical analysis was performed using SAS software version 9.3 (SAS Institute, Cary, N.C.). Analyses of metabolites between control and BD groups were performed using unpaired t-tests and Wilcoxon rank sum tests. A logistic regression model with a stepwise selection method was used for the multivariate analysis and multiple regression analysis (consistent with description in Allen et al., Technometrics. 1974; 16(1):125-127; and Miller et al., Chapman and Hall. 1974, which are incorporated in their entireties by reference herein). […] The Mann-Whitney U test (two-tailed) was used to evaluate changes in expression levels of the ACO and IDH genes between control and BD groups. Rat data are presented as mean±SD. To determine the effects of drug treatment, a one-way ANOVA, followed by the post hoc Dunnett's test was used. P values of less than 0.05 for two-tailed tests were considered statistically significant.
as §2
The serum concentrations of 116 major metabolites from several pathways were measured.

Idh3b = assay: Quantitative PCR of Idh3b mRNA in rat prefrontal cortex and hippocampus after Li or VPA; type: in vivo; details: normalized to Gapdh; for Idh3b gene expression: relative to control, mean ± SD
Experimental: as §1, §2, §3

Aco1 = assay: Quantitative PCR of Aco1 mRNA in rat prefrontal cortex and hippocampus after Li or VPA; type: in vivo; details: normalized to Gapdh; for Aco1 gene expression: relative to control, mean ± SD
Experimental: as §1, §2, §3

[1] = rat prefrontal cortex and hippocampus, chronic (4-weeks) treatment, vs control, sodium salt

CCCC(CCC)C(=O)[O-].[Na+] [VPA, valproic acid sodium salt]
Aco2 gene expression (Aco2; rat hippocampus): 1.0358 ± 0.0499 | mRNA levels of Aco2 (Aco2; [1]): did not alter; also recorded: not altered | Aco2 gene expression (Aco2; rat prefrontal cortex): 0.9505 ± 0.1596 | mRNA levels of Idh3a (Idh3a; [1]): did not alter; also recorded: not altered | Idh3a gene expression (Idh3a; rat prefrontal cortex, relative to control, mean ± SD): 1.2546 ± 0.3578 | 2,3-Diphosphoglyceric acid Mean (serum samples from rats; rat serum): 2.1 | 2-Hydroxyglutaric acid Mean (serum samples from rats; rat serum): 1.5 | 2-Oxoglutaric acid Mean (serum samples from rats; rat serum): 29 | 2-Oxoisovaleric acid Mean (serum samples from rats; rat serum): 15 | 2-Phosphoglyceric acid Mean (serum samples from rats; rat serum): 0.6 | 3-Phosphoglyceric acid Mean (serum samples from rats; rat serum): 5.0 | ADP-ribose Mean (serum samples from rats; rat serum): 0.13 | AMP Mean (serum samples from rats; rat serum): 0.4 | ATP Mean (serum samples from rats; rat serum): 4.2 | Ala Mean (serum samples from rats; rat serum): 757 | Arg Mean (serum samples from rats; rat serum): 206 | Argininosuccinic acid Mean (serum samples from rats; rat serum): 0.4 | Asn Mean (serum samples from rats; rat serum): 77 | Asp Mean (serum samples from rats; rat serum): 12 | Betaine Mean (serum samples from rats; rat serum): 287 | Carnitine Mean (serum samples from rats; rat serum): 78 | Carnosine Mean (serum samples from rats; rat serum): 0.2 | Choline Mean (serum samples from rats; rat serum): 13 | Citric acid Mean (serum samples from rats; rat serum): 151 | Citrulline Mean (serum samples from rats; rat serum): 92 | Creatine Mean (serum samples from rats; rat serum): 211 | Creatinine Mean (serum samples from rats; rat serum): 25 | Cystathionine Mean (serum samples from rats; rat serum): 1.1 | Fructose 1,6-diphosphate Mean (serum samples from rats; rat serum): 0.3 | Fructose 6-phosphate Mean (serum samples from rats; rat serum): 0.09 | Fumaric acid Mean (serum samples from rats; rat serum): 2.6 | GDP Mean (serum samples from rats; rat serum): 0.4 | GMP Mean (serum samples from rats; rat serum): 0.07 | GTP Mean (serum samples from rats; rat serum): 1.9 | Gln Mean (serum samples from rats; rat serum): 1,001 | Glu Mean (serum samples from rats; rat serum): 173 | Glucose 6-phosphate Mean (serum samples from rats; rat serum): 0.6 | Glutathione (GSSG) Mean (serum samples from rats; rat serum): 0.4 | Gly Mean (serum samples from rats; rat serum): 488 | Glycerol 3-phosphate Mean (serum samples from rats; rat serum): 3.5 | Glycolic acid Mean (serum samples from rats; rat serum): 11 | His Mean (serum samples from rats; rat serum): 90 | Hydroxyproline Mean (serum samples from rats; rat serum): 65 | IMP Mean (serum samples from rats; rat serum): 0.13 | Ile Mean (serum samples from rats; rat serum): 119 | Isocitric acid Mean (serum samples from rats; rat serum): 8.2 | Lactic acid Mean (serum samples from rats; rat serum): 2,751 | Leu Mean (serum samples from rats; rat serum): 207 | Lys Mean (serum samples from rats; rat serum): 696 | Malic acid Mean (serum samples from rats; rat serum): 12 | Met Mean (serum samples from rats; rat serum): 53 | Mevalonic acid Mean (serum samples from rats; rat serum): 1.5E−04 | N,N-Dimethylglycine Mean (serum samples from rats; rat serum): 11 | N-Carbamoylaspartic acid Mean (serum samples from rats; rat serum): 0.02 | NAD^+ Mean (serum samples from rats; rat serum): 1.1 | Ornithine Mean (serum samples from rats; rat serum): 76 | Phe Mean (serum samples from rats; rat serum): 65 | Phosphocreatine Mean (serum samples from rats; rat serum): 0.9 | Pro Mean (serum samples from rats; rat serum): 220 | Putrescine Mean (serum samples from rats; rat serum): 0.3 | Pyruvic acid Mean (serum samples from rats; rat serum): 107 | Ribose 1-phosphate Mean (serum samples from rats; rat serum): 0.4 | Ribose 5-phosphate Mean (serum samples from rats; rat serum): 0.04 | Ribulose 5-phosphate Mean (serum samples from rats; rat serum): 0.2 | Sarcosine Mean (serum samples from rats; rat serum): 5.5 | Ser Mean (serum samples from rats; rat serum): 319 | Succinic acid Mean (serum samples from rats; rat serum): 10 | Thr Mean (serum samples from rats; rat serum): 217 | Trp Mean (serum samples from rats; rat serum): 110 | Tyr Mean (serum samples from rats; rat serum): 89 | UDP-glucose Mean (serum samples from rats; rat serum): 0.6 | Urea Mean (serum samples from rats; rat serum): 5,050 | Uric acid Mean (serum samples from rats; rat serum): 25 | Val Mean (serum samples from rats; rat serum): 290 | cAMP Mean (serum samples from rats; rat serum): 0.05 | cGMP Mean (serum samples from rats; rat serum): 0.02 | cis-Aconitic acid Mean (serum samples from rats; rat serum): 3.1 | β-Ala Mean (serum samples from rats; rat serum): 1.9 | serum levels of N-acetylglutamic acid (serum samples from rats; rats, vs control): not altered | serum levels of arginine (serum samples from rats; rats, vs control): not altered | serum levels of pyruvic acid (serum samples from rats; rats, vs control): not altered | serum levels of serine (serum samples from rats; rats, vs control): not altered | serum levels of β-alanine (serum samples from rats; rats, vs control): not altered | Idh3b gene expression (Idh3b; rat hippocampus): 1.1512 ± 0.1377 | mRNA levels of Idh3b (Idh3b; [1]): did not alter; also recorded: not altered | Idh3b gene expression (Idh3b; rat prefrontal cortex): 1.2265 ± 0.2128 | Aco1 gene expression (Aco1; rat hippocampus): 1.0956 ± 0.0520 | mRNA levels of Aco1 (Aco1; [1]): did not alter; also recorded: not altered | Aco1 gene expression (Aco1; rat prefrontal cortex): 1.1550 ± 0.1237
